In ChEMBL document CHEMBL1201862, “PubChem BioAssay data set” (2004):
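All cell lines were grown in 96-well plates and treated with compound for 48 hours. GI50 marks 50% less growth.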 Activity calls are given as the source filed them. Cut-off read from the data, not from the text of the source: active = GI50 up to about 1.1 µM and inactive = higher.

Assays:
Test in all cases: NCI tumour cell line growth inhibition, 48 h
[1] = test system: HCT-15
[2] = test system: T47D
[3] = test system: UACC-62
[4] = test system: SW-620
[5] = test system: RPMI-8226
[6] = test system: SNB-19
[7] = test system: HOP-92
[8] = test system: SF-295
[9] = test system: MDA-MB-435
[10] = test system: ACHN
[11] = test system: OVCAR-4
[12] = test system: TK-10
[13] = test system: SK-MEL-28
[14] = test system: OVCAR-3
[15] = test system: HCT-116
[16] = test system: MOLT-4
[17] = test system: OVCAR-8
[18] = test system: COLO 205
[19] = test system: HT-29
[20] = test system: NCI-H522

Structure (SMILES)	GI50 [1] [µM]	GI50 [2]	GI50 [3]	GI50 [4]	GI50 [5]	GI50 [6]	GI50 [7]	GI50 [8]	GI50 [9]	GI50 [10]	GI50 [11]	GI50 [12]	GI50 [13]	GI50 [14]	GI50 [15]	GI50 [16]	GI50 [17]	GI50 [18]	GI50 [19]	GI50 [20]
CNC1=CC(=O)C2=C(C1=O)[C@H]1CC[C@]3(C)C(=O)CC[C@H]3[C@@H]1CC2	12.4	18.9 µM (inactive)	14 µM (inactive)	22.9 µM (inactive)	17.3 µM (inactive)	17.7 µM (inactive)	12 µM (inactive)	15.3 µM (inactive)	5.66 µM (inactive)	21.6 µM (inactive)	9.38 µM (inactive)	62.4 µM (inactive)	18.2 µM (inactive)	1.16 µM (inactive)	16.9 µM (inactive)	11.1 µM (inactive)	9.71 µM (inactive)	13.7 µM (inactive)	–	–
CCOC(=O)c1c(NC(=O)c2cccs2)sc2c1CCC2	> 100	> 100 µM (inactive)	> 100 µM (inactive)	–	> 100 µM (inactive)	> 100 µM (inactive)	–	> 100 µM (inactive)	–	> 100 µM (inactive)	–	> 100 µM (inactive)	–	> 100 µM (inactive)	> 100 µM (inactive)	> 100 µM (inactive)	> 100 µM (inactive)	> 100 µM (inactive)	> 100 µM (inactive)	–
CCOC(=O)c1nnn(CCCCO)c1C(=O)OCC	> 100	> 100 µM (inactive)	> 100 µM (inactive)	> 100 µM (inactive)	–	30.1 µM (inactive)	> 100 µM (inactive)	> 100 µM (inactive)	> 100 µM (inactive)	> 10 µM (inactive)	> 100 µM (inactive)	> 100 µM (inactive)	> 100 µM (inactive)	–	> 100 µM (inactive)	> 100 µM (inactive)	> 100 µM (inactive)	> 100 µM (inactive)	> 100 µM (inactive)	–
CCOC(=O)c1ccc(NCc2ccc3oc(=O)c(-c4ccccc4)nc3c2)cc1	81.5	12.4 µM (inactive)	> 100 µM (inactive)	21.6 µM (inactive)	–	> 100 µM (inactive)	31.2 µM (inactive)	> 100 µM (inactive)	16.2 µM (inactive)	26.6 µM (inactive)	18 µM (inactive)	–	30.7 µM (inactive)	18.7 µM (inactive)	29.8 µM (inactive)	15.1 µM (inactive)	18.8 µM (inactive)	23.2 µM (inactive)	57.4 µM (inactive)	6.21 µM (inactive)
COC(=O)/C=C/c1cc(OC)c2oc(-c3ccc(OC)c(OC)c3)c(C(=O)OC)c2c1	> 100	> 100 µM (inactive)	> 100 µM (inactive)	> 100 µM (inactive)	> 100 µM (inactive)	> 100 µM (inactive)	> 100 µM (inactive)	> 100 µM (inactive)	> 100 µM (inactive)	> 100 µM (inactive)	> 100 µM (inactive)	> 100 µM (inactive)	> 100 µM (inactive)	> 100 µM (inactive)	–	> 100 µM (inactive)	> 100 µM (inactive)	> 100 µM (inactive)	> 100 µM (inactive)	–
O=Cc1cc2c(cc1-c1c(C=O)ccc3c1OCO3)OCO2	> 10	> 10 µM (inactive)	> 10 µM (inactive)	> 10 µM (inactive)	> 10 µM (inactive)	> 10 µM (inactive)	> 10 µM (inactive)	> 10 µM (inactive)	> 10 µM (inactive)	> 10 µM (inactive)	> 10 µM (inactive)	> 10 µM (inactive)	> 10 µM (inactive)	> 10 µM (inactive)	> 10 µM (inactive)	> 10 µM (inactive)	> 10 µM (inactive)	> 10 µM (inactive)	> 10 µM (inactive)	–
COCn1cc(C2=C(C)C(=O)C(C)=C(C)C2=O)cn1	> 100	23.6 µM (inactive)	> 100 µM (inactive)	> 100 µM (inactive)	27.9 µM (inactive)	> 100 µM (inactive)	12.7 µM (inactive)	> 100 µM (inactive)	19.6 µM (inactive)	85.9 µM (inactive)	17.7 µM (inactive)	> 100 µM (inactive)	> 100 µM (inactive)	19.5 µM (inactive)	20 µM (inactive)	14.9 µM (inactive)	21.1 µM (inactive)	> 100 µM (inactive)	> 100 µM (inactive)	–
Cc1c(NC(=O)CSC(=S)N2CCN(Cc3ccccc3)CC2)c(=O)n(-c2ccccc2)n1C	> 100	> 100 µM (inactive)	–	> 100 µM (inactive)	> 100 µM (inactive)	> 100 µM (inactive)	–	> 100 µM (inactive)	> 100 µM (inactive)	> 100 µM (inactive)	> 100 µM (inactive)	> 100 µM (inactive)	> 100 µM (inactive)	> 100 µM (inactive)	> 100 µM (inactive)	> 100 µM (inactive)	> 100 µM (inactive)	> 100 µM (inactive)	> 100 µM (inactive)	> 100 µM (inactive)
Cc1c2ccccc2c(/C=N/NC(=O)CSCC(=O)N/N=C/c2c3ccccc3c(C)c3ccccc23)c2ccccc12	> 100	> 25.6 µM (inactive)	> 64.7 µM (inactive)	> 57.4 µM (inactive)	17.2 µM (inactive)	47 µM (inactive)	13.2 µM (inactive)	16 µM (inactive)	> 79.6 µM (inactive)	> 47.8 µM (inactive)	> 42.1 µM (inactive)	29 µM (inactive)	> 60.7 µM (inactive)	47.5 µM (inactive)	55.6 µM (inactive)	27.8 µM (inactive)	16.2 µM (inactive)	–	> 39.3 µM (inactive)	–
C=CCOC1(CC=C)C(=O)OC2C(O)COC21O (configuration not stated)	> 100	> 100 µM (inactive)	> 100 µM (inactive)	> 100 µM (inactive)	–	> 100 µM (inactive)	–	> 100 µM (inactive)	> 100 µM (inactive)	> 100 µM (inactive)	> 100 µM (inactive)	> 100 µM (inactive)	> 100 µM (inactive)	> 100 µM (inactive)	> 100 µM (inactive)	> 100 µM (inactive)	> 100 µM (inactive)	> 100 µM (inactive)	> 100 µM (inactive)	> 100 µM (inactive)
CN(C)c1cccc2c(S(=O)(=O)NCCCNCCN)cccc12	> 100	49.4 µM (inactive)	51.2 µM (inactive)	55.2 µM (inactive)	–	> 100 µM (inactive)	34.4 µM (inactive)	55.2 µM (inactive)	27.4 µM (inactive)	> 100 µM (inactive)	55.2 µM (inactive)	–	46.1 µM (inactive)	62.5 µM (inactive)	36.2 µM (inactive)	18.6 µM (inactive)	–	17.6 µM (inactive)	25.9 µM (inactive)	48.1 µM (inactive)
CC1=CC(=O)C[C@]2(C)[C@@H](O)CC(C(C)CO)C[C@@H]12 (some centres not stated)	> 100	> 100 µM (inactive)	> 100 µM (inactive)	> 100 µM (inactive)	–	> 100 µM (inactive)	> 100 µM (inactive)	> 100 µM (inactive)	> 100 µM (inactive)	> 100 µM (inactive)	> 100 µM (inactive)	> 100 µM (inactive)	> 100 µM (inactive)	> 100 µM (inactive)	> 100 µM (inactive)	> 100 µM (inactive)	> 100 µM (inactive)	> 100 µM (inactive)	> 100 µM (inactive)	–
